Experimental data taken from patent US6066628A, “Non-iron metalloporphyrins and methods of use” (Emory University, priority 1998, dated 2000).
≈ marks a conversion by molar mass, not a printed value. Where “and” joins values, the source holds several entries; their conditions need not be identical. Equal entries are not always repeated. Where two headings read alike, the source gives them in different places.

Assays:
bacteria = type: cell-based; settings: for MICs: porphyrins without Ga ions, all tested bacteria
M. smegmatis [1] = type: cell-based, Mycobacterium smegmatis; settings: for MIC / Minimal inhibitory concentration (MIC): M. smegmatis LR222; for MIC: dark (Table 10); for Minimal inhibitory concentration (MIC): LB + Tween 80 (Table 2); for antibacterial activity: M. smegmatis
Y. enterocolitica [2] = experiment: microbe, parasite or virus in culture; type: cell-based
S. aureus [3] = type: cell-based, Staphylococcus aureus; settings: for MIC: S. aureus IR2419, dark (Table 10); for Minimal inhibitory concentration (MIC): methicillin-resistant S. aureus IR219, Nutrient broth (Table 2); for antibacterial activity: S. aureus
S. aureus [4] = experiment: Competition of heme/protoporphyrin IX with Ga-PPIX antibacterial activity; type: cell-based, Staphylococcus aureus; settings: for antagonism of Ga-PPIX antibacterial activity: heme 10- to 100-fold molar excess, protoporphyrin IX 100-fold excess
Y. enterocolitica [5] = experiment: Minimal bactericidal concentration; type: cell-based; settings: reduces plating efficiency more than 99.9%, minimal exposure to light; for MBC: Yersinia enterocolitica
Y. enterocolitica [6] = experiment: Competition of heme/protoporphyrin IX with Ga-PPIX antibacterial activity
S. aureus [7] = experiment: Minimal bactericidal concentration; type: cell-based, Staphylococcus aureus; settings: reduces plating efficiency more than 99.9%, minimal exposure to light; for MBC: Staphylococcus aureus
Method: Minimal bactericidal concentrations (MBCs) were determined essentially the same way as MICs except that the amount of killing with a particular concentration of porphyrin derivative was determined by plating on solid microbiological media (LB plates or LB+Tween 80). Media were solidified by the incorporation of 1.5% agar (Difco Laboratories). Concentrations of porphyrins that produced 99.9% reduction in bacterial counts were considered bactericidal [Hindler et al. (1994) supra].
MBC were determined by plating bacterial cultures that have been incubate
in the presence of MPs at concentrations higher than MIC. MBC was defined
as a concentration of a particular MP which reduces the plating efficienc
more than 99.9%. Experiments were done with minimal exposure to light
(addition of porphyrins waa done in the presence of artifical light).

M. smegmatis [8] = experiment: Competition of heme/protoporphyrin IX with Ga-PPIX antibacterial activity; settings: for antagonism of Ga-PPIX antibacterial activity: heme 10- to 100-fold molar excess, protoporphyrin IX 20- and 100-fold excess
M. smegmatis [9] = experiment: Minimal bactericidal concentration; type: cell-based, Mycobacterium smegmatis; settings: reduces plating efficiency more than 99.9%, minimal exposure to light; for MBC: Mycolicibacterium smegmatis
[10] = +1 μg/ml Ga-PPIX, competitor 1 μg/ml
[11] = +1 μg/ml Ga-PPIX, competitor 10 μg/ml
[12] = +1 μg/ml Ga-PPIX, competitor 20 μg/ml
[13] = +1 μg/ml Ga-PPIX, competitor 100 μg/ml
[14] = -1 μg/ml Ga-PPIX (without Ga-PPIX), 1 μg/ml
[15] = -1 μg/ml Ga-PPIX (without Ga-PPIX), 10 μg/ml
[16] = -1 μg/ml Ga-PPIX (without Ga-PPIX), 20 μg/ml
[17] = -1 μg/ml Ga-PPIX (without Ga-PPIX), 100 μg/ml
[18] = Mycolicibacterium smegmatis, read-out: MIC
[19] = Staphylococcus aureus, read-out: MIC
[20] = iron restriction / 2,2'-dipyridyl

C=Cc1c(C)c2cc3nc(c(CC(=O)O)c4[nH]c(cc5nc(cc1[nH]2)C(C)=C5CC)c(C)c4C(=O)O)[C@@H](CCC(=O)O)[C@@H]3C [Ce6, chlorin e6, reference compound]
MICs (bacteria): very large MICs | MIC (M. smegmatis [1]): 20 µg/mL (≈ 33.5 µM) | MIC (Y. enterocolitica [2]): 20 and > 10 | MIC (S. aureus [3]): 20 µg/mL (≈ 33.5 µM)

C=CC1=C(C)c2cc3[nH]c(cc4nc(cc5[nH]c(cc1n2)c(C)c5CCC(=O)O)C(CCC(=O)O)=C4C)c(C)c3C=C [PPIX, protoporphyrin IX]
MICs (bacteria): very large MICs | growth (S. aureus [4]; [10]): - | growth (S. aureus [4]; [11]): - | growth (S. aureus [4]; [12]): - | growth (S. aureus [4]; [13]): + | growth (S. aureus [4]; [14]): + | growth (S. aureus [4]; [15]): + | growth (S. aureus [4]; [16]): + | growth (S. aureus [4]; [17]): + | antagonism of Ga-PPIX antibacterial activity (S. aureus [4]): some antagonizing effect | MIC (M. smegmatis [1]; [18]): > 40 µg/mL | MBC (Y. enterocolitica [5]): > 40 µg/mL | growth (Y. enterocolitica [6]; [10]): - | growth (Y. enterocolitica [6]; [11]): - | growth (Y. enterocolitica [6]; [12]): - | growth (Y. enterocolitica [6]; [13]): - | growth (Y. enterocolitica [6]; [14]): + | growth (Y. enterocolitica [6]; [15]): + | growth (Y. enterocolitica [6]; [16]): + | growth (Y. enterocolitica [6]; [17]): - | antagonism of Ga-PPIX antibacterial activity (Y. enterocolitica [6]; Y. enterocolitica fur mutant): not able to antagonize | MBC (S. aureus [7]): > 40 µg/mL | growth (M. smegmatis [8]; [10]): - | growth (M. smegmatis [8]; [12]): + | growth (M. smegmatis [8]; [13]): + | growth (M. smegmatis [8]; [14]): + | growth (M. smegmatis [8]; [15]): + | growth (M. smegmatis [8]; [16]): + | growth (M. smegmatis [8]; [17]): + | antagonism of Ga-PPIX antibacterial activity (M. smegmatis [8]): antagonized | MIC (S. aureus [3]; [19]): 50 µg/mL (≈ 88.9 µM) | MBC (M. smegmatis [9]): > 20 µg/mL

CN[C@H](CC(C)C)C(=O)N[C@H]1C(=O)N[C@@H](CC(N)=O)C(=O)N[C@H]2C(=O)N[C@H]3C(=O)N[C@H](C(=O)N[C@H](C(=O)O)c4cc(O)cc(O)c4-c4cc3ccc4O)[C@H](O)c3ccc(c(Cl)c3)Oc3cc2cc(c3O[C@@H]2O[C@H](CO)[C@@H](O)[C@H](O)[C@H]2O[C@H]2C[C@](C)(N)[C@H](O)[C@H](C)O2)Oc2ccc(cc2Cl)[C@H]1O [vancomycin, reference compound]
effect of iron restriction medium conditions on MIC (bacteria): not affected

CCC1=C(CC)c2cc3[nH]c(cc4nc(cc5[nH]c(cc1n2)c(CC)c5CC)C(CC)=C4CC)c(CC)c3CC.[Ga] [GA-OEP]
MIC (M. smegmatis [1]): 5 µg/mL | Minimal bactericidal concentration (MBC) (Y. enterocolitica [5]): > 20 | MIC (Y. enterocolitica [2]; in µg/mL): 20 | Minimal bactericidal concentration (MBC) (S. aureus [7]): 5 | MIC (S. aureus [3]): 10 µg/mL | Minimal bactericidal concentration (MBC) (M. smegmatis [9]): 10

C=CC1=C(C)c2cc3[n-]c(cc4[n-]c(cc5nc(cc1n2)C(C)=C5C=C)c(C)c4CCC(=O)[O-])c(CCC(=O)[O-])c3C.[H+].[H+].[Ni+2] [Ni-PPIX]
Minimal inhibitory concentration (MIC) (M. smegmatis [1]): 20 µg/mL | Minimal inhibitory concentration (MIC) (Y. enterocolitica [2]): > 40 | Minimal inhibitory concentration (MIC) (S. aureus [3]): > 40 µg/mL

C1=Cc2cc3ccc(cc4nc(cc5ccc(cc1n2)[nH]5)C=C4)[nH]3 [POR, porphine, reference compound]
MICs (bacteria): very large MICs | MIC (M. smegmatis [1]; [18]): > 40 µg/mL | MIC (Y. enterocolitica [2]; Yersinia enterocolitica, read-out: MIC): 30 µg/mL (≈ 96.7 µM) | MIC (Y. enterocolitica [2]; in µg/mL): 20 | MIC (S. aureus [3]; [19]): 50 µg/mL (≈ 161 µM)

C=CC1=C(C)c2cc3[n-]c(cc4[n-]c(cc5nc(cc1n2)C(C)=C5C=C)c(C)c4CCC(=O)O)c(CCC(=O)O)c3C.[Cu+2] [Cu-PPIX]
Minimal inhibitory concentration (MIC) (M. smegmatis [1]): 20 µg/mL | Minimal inhibitory concentration (MIC) (Y. enterocolitica [2]): 20 | Minimal inhibitory concentration (MIC) (S. aureus [3]): > 40 µg/mL

CCC1=C(C)c2cc3[nH]c(cc4nc(cc5[nH]c(cc1n2)c(C)c5CCC(=O)O)C(CCC(=O)O)=C4C)c(C)c3CC [MP-IX, mesoporphyrin IX, reference compound]
antibacterial activity (M. smegmatis [1]): largely inactive | MIC (M. smegmatis [1]; [18]): > 40 µg/mL | MBC (Y. enterocolitica [5]): > 10 µg/mL | MBC (S. aureus [7]): > 13 µg/mL | antibacterial activity (S. aureus [3]): largely inactive | MIC (S. aureus [3]; [19]): 20 µg/mL (≈ 35.3 µM) | MBC (M. smegmatis [9]): > 40 µg/mL

CCC1=C(C)C2=Cc3c(C)c(CCC(=O)O)c4[n]3[Ga][n]3c(c(C)c(CC)c3=CC3=NC(=C4)C(CCC(=O)O)=C3C)=CC1=N2 [GA-MP-IX]
MIC (M. smegmatis [1]): 0.4 µg/mL | Minimal bactericidal concentration (MBC) (Y. enterocolitica [5]): 5 | MIC (Y. enterocolitica [2]; in µg/mL): 2.5 and 5 | Minimal bactericidal concentration (MBC) (S. aureus [7]): > 13 | MIC (S. aureus [3]): 1.6 µg/mL | Minimal bactericidal concentration (MBC) (M. smegmatis [9]): 10

C1=CC2=NC1=Cc1ccc3[n]1[Ga][n]1c(ccc1=CC1=NC(=C3)C=C1)=C2 [GA-POR]
MIC (M. smegmatis [1]): 5 µg/mL | MIC (Y. enterocolitica [2]; in µg/mL): 20 | MIC (S. aureus [3]): 50 µg/mL

C=CC1=C(C)c2cc3[n-]c(cc4nc(cc5[n-]c(cc1n2)c(C)c5CCC(=O)O)C(CCC(=O)O)=C4C)c(C)c3C=C.[Pt+2] [Pt-PPIX, Platinum protoporphyrin IX]
Minimal inhibitory concentration (MIC) (M. smegmatis [1]): 20 µg/mL | Minimal inhibitory concentration (MIC) (Y. enterocolitica [2]): 30 | Minimal inhibitory concentration (MIC) (S. aureus [3]): 40 µg/mL

C=CC1=C(C)C2=Cc3c(C=C)c(C)c4[n]3[Gd]([Cl])[n]3c(c(C)c(CCC(=O)O)c3=CC3=NC(=C4)C(C)=C3CCC(=O)O)=CC1=N2 [Gd-PPIX, Gadolinium protoporphyrin IX]
Minimal bactericidal concentration (MBC) (Y. enterocolitica [5]): 10

C=CC1=C(C)c2cc3[n-]c(cc4[n-]c(cc5nc(cc1n2)C(C)=C5C=C)c(C)c4CCC(=O)O)c(CCC(=O)O)c3C.[Fe+2] [Fe-PPIX]
growth (S. aureus [4]; [10]): - | growth (S. aureus [4]; [11]): - | growth (S. aureus [4]; [12]): - | growth (S. aureus [4]; [13]): - | growth (S. aureus [4]; [14]): + | growth (S. aureus [4]; [15]): + | growth (S. aureus [4]; [16]): + | growth (S. aureus [4]; [17]): + | antagonism of Ga-PPIX antibacterial activity (S. aureus [4]): did not antagonize | toxic effect on S. aureus (S. aureus [4]; heme dissolved in 20 mM NaOH): not observed | Minimal inhibitory concentration (MIC) (M. smegmatis [1]): > 40 µg/mL | growth (Y. enterocolitica [6]; [10]): - | growth (Y. enterocolitica [6]; [11]): + | growth (Y. enterocolitica [6]; [12]): + | growth (Y. enterocolitica [6]; [13]): + | growth (Y. enterocolitica [6]; [14]): + | growth (Y. enterocolitica [6]; [15]): + | growth (Y. enterocolitica [6]; [16]): + | growth (Y. enterocolitica [6]; [17]): + | Minimal inhibitory concentration (MIC) (Y. enterocolitica [2]): > 40 | growth (M. smegmatis [8]; [10]): - | growth (M. smegmatis [8]; [11]): - | growth (M. smegmatis [8]; [12]): - | growth (M. smegmatis [8]; [13]): - | growth (M. smegmatis [8]; [14]): + | growth (M. smegmatis [8]; [15]): + | growth (M. smegmatis [8]; [16]): + | growth (M. smegmatis [8]; [17]): + | antagonism of Ga-PPIX antibacterial activity (M. smegmatis [8]): did not antagonize | Minimal inhibitory concentration (MIC) (S. aureus [3]): > 40 µg/mL

CC1(C)S[C@@H]2[C@H](NC(=O)[C@H](N)c3ccccc3)C(=O)N2[C@H]1C(=O)O [ampicillin, reference compound]
effect of iron restriction medium conditions on MIC (bacteria; [20]): not affected

O=C(N[C@H](CO)[C@H](O)c1ccc([N+](=O)[O-])cc1)C(Cl)Cl [chloramphenicol, reference compound]
effect of iron restriction medium conditions on MIC (bacteria; [20]): not affected

Gallium (+3) hematoporphyrin IX
antibacterial activity (bacteria): active against all microorganisms challenged

CCC1=C(CC)c2cc3[nH]c(cc4nc(cc5[nH]c(cc1n2)c(CC)c5CC)C(CC)=C4CC)c(CC)c3CC [OEP, octaethylporphine, reference compound]
MIC (M. smegmatis [1]; [18]): 10 µg/mL (≈ 18.7 µM) | MBC (Y. enterocolitica [5]): 5 µg/mL (≈ 9.35 µM) | MIC (Y. enterocolitica [2]; Yersinia enterocolitica): 5 µg/mL (≈ 9.35 µM) | Minimal bactericidal concentration (MBC) (S. aureus [7]): 5/10 | MIC (S. aureus [3]; [19]): 10 µg/mL (≈ 18.7 µM) | MBC (M. smegmatis [9]): 10 µg/mL (≈ 18.7 µM)

O=C(O)CCC1=C(CC(=O)O)c2cc3[nH]c(cc4nc(cc5[nH]c(cc1n2)c(CC(=O)O)c5CCC(=O)O)C(CC(=O)O)=C4CCC(=O)O)c(CC(=O)O)c3CCC(=O)O [UP-1, uroporphyrin I, reference compound]
antibacterial activity (M. smegmatis [1]): largely inactive | MIC (M. smegmatis [1]; [18]): 20 µg/mL (≈ 24.1 µM) | Minimal bactericidal concentration (MBC) (Y. enterocolitica [5]): 5/10 | HemR requirement of bacterial sensitivity (Y. enterocolitica [2]): did not require expression of HemR | MIC (Y. enterocolitica [2]; Yersinia enterocolitica): 10 µg/mL (≈ 12 µM) | MBC (S. aureus [7]): 20 µg/mL (≈ 24.1 µM) | antibacterial activity (S. aureus [3]): largely inactive | MIC (S. aureus [3]; [19]): 20 µg/mL (≈ 24.1 µM) | MBC (M. smegmatis [9]): 10 µg/mL (≈ 12 µM)
